Test results: article PMC3513970 (Oncogene, 2011)
Several values for one entry are separate records, joined by “and”; a condition that tells them apart may be missing. Equal entries are not always repeated.

Legend:
[1] = target: recombinant WT ezrin (Mus musculus, UniProt P26040); experiment: SPR direct binding to immobilized recombinant WT ezrin
[2] = target: actin; experiment: SPR binding to actin; conditions: read-out: KD for binding to actin; negative control; data not shown
[3] = target: T1, PKCΙ (Homo sapiens, UniProt P41743); experiment: Biacore direct interaction with PKCΙ; conditions: read-out: KD for binding to PKCΙ, data not shown
T1 sequence (P41743 1-596): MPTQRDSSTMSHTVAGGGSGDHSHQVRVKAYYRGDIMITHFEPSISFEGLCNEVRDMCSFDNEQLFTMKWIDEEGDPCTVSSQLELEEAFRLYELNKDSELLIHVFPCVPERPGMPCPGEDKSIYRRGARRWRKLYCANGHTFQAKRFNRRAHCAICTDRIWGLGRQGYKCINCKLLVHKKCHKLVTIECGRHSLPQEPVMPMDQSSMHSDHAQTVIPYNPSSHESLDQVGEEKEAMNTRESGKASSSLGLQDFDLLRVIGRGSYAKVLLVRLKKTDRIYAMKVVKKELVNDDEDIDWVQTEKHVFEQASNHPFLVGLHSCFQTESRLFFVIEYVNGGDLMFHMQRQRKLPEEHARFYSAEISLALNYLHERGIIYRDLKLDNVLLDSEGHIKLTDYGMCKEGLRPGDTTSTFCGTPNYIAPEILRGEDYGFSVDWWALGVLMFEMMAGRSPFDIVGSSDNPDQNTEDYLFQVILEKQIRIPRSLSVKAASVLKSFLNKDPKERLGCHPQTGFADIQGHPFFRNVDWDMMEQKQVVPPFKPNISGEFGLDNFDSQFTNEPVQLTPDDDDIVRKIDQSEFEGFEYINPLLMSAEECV

[4] = target: PKCΙ phosphorylation of moesin (Homo sapiens, UniProt P26038); experiment: In vitro kinase assay: PKCΙ phosphorylation of moesin; assay type: biochemical; conditions: read-out: IC50, PKCΙ phosphorylation of moesin
[5] = target: PKCΙ phosphorylation of radixin (Homo sapiens, UniProt P35241); experiment: In vitro kinase assay: PKCΙ phosphorylation of radixin; assay type: biochemical; conditions: read-out: IC50, PKCΙ phosphorylation of radixin
[6] = test system: PKCΙ, α and γ; experiment: Radioactive in vitro kinase profiling of PKC isoforms on non-specific substrate; assay type: biochemical; conditions: myelin basic protein substrate; maximum 100 μM
[7] = target: endogenous ezrin in K7M2 OS cells (Mus musculus, UniProt P26040); experiment: Immunoprecipitation/immunoblotting of endogenous ezrin in K7M2 cells; assay type: cell-based, murine; conditions: 10 μM, 6 h
[8] = test system: K7M2 cells; experiment: Invasion of HUVEC monolayer by K7M2 cells; assay type: cell-based, murine; conditions: 10 μM, 5 h, vs DMSO (1%)
[9] = test system: K12 cells; experiment: Invasion of HUVEC monolayer by K12 cells; assay type: cell-based, murine; conditions: 10 μM
[10] = test system: K7M2 cells, K12 cells or HUVECs; experiment: Cell viability assays; assay type: cell-based; conditions: 10 μM; K7M2, K12, HUVEC; data not shown
[11] = test system: K7M2 cells; experiment: Cell migration assay for synergy; assay type: cell-based, murine; conditions: combination of NSC305787 and NSC668394
[12] = test system: Xenopus embryos; experiment: Xenopus embryo development assay; assay type: in vivo
[13] = test system: GFP-expressing K7M2 OS cells in lung slices; experiment: Ex vivo mouse lung organ culture; assay type: cell-based; conditions: 10 μM, vs DMSO 1%
[14] = test system: K7M2 lung metastasis in BALB/c mice; experiment: In vivo experimental lung metastasis model, K7M2 cells; set-up: species or system mouse
[15] = test system: MNNG-HOS lung metastasis in SCID/Beige mice; experiment: In vivo experimental lung metastasis model, MNNG-HOS cells; set-up: species or system mouse
[16] = mouse
[17] = test system: zebrafish embryos; experiment: Zebrafish embryo development assay

recombinant WT ezrin, sequence (P26040 whole entry): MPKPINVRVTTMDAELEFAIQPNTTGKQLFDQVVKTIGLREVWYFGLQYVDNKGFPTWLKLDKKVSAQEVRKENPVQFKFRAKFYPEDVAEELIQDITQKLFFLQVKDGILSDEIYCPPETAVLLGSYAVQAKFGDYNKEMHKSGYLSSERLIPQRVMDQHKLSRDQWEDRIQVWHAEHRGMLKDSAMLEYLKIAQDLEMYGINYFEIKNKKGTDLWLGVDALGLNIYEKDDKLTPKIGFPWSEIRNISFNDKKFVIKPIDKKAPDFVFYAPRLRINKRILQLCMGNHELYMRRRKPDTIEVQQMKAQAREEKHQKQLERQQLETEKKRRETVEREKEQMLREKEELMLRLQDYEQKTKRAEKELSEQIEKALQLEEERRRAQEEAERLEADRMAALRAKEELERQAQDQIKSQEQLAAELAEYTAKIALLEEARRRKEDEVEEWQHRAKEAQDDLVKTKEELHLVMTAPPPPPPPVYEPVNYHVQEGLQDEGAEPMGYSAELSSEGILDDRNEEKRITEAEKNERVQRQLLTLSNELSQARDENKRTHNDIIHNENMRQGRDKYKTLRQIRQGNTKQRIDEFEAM
endogenous ezrin in K7M2 OS cells, sequence (P26040 whole entry): as above
PKCΙ phosphorylation of moesin, sequence (P26038 whole entry): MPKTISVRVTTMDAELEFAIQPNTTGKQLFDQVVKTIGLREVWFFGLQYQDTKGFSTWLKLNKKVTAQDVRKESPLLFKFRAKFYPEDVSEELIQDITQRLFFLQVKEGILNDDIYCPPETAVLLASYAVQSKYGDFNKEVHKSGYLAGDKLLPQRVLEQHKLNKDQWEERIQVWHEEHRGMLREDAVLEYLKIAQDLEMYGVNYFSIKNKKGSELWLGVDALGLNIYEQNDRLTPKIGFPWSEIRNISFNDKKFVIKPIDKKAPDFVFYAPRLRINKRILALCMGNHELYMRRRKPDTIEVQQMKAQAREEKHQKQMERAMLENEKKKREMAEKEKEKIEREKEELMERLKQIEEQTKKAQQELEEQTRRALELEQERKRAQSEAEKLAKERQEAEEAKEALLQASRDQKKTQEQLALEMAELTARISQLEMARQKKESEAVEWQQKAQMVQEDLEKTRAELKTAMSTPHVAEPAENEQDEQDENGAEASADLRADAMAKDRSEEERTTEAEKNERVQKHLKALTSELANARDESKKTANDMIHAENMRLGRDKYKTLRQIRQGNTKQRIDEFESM
PKCΙ phosphorylation of radixin, sequence (P35241 whole entry, canonical isoform): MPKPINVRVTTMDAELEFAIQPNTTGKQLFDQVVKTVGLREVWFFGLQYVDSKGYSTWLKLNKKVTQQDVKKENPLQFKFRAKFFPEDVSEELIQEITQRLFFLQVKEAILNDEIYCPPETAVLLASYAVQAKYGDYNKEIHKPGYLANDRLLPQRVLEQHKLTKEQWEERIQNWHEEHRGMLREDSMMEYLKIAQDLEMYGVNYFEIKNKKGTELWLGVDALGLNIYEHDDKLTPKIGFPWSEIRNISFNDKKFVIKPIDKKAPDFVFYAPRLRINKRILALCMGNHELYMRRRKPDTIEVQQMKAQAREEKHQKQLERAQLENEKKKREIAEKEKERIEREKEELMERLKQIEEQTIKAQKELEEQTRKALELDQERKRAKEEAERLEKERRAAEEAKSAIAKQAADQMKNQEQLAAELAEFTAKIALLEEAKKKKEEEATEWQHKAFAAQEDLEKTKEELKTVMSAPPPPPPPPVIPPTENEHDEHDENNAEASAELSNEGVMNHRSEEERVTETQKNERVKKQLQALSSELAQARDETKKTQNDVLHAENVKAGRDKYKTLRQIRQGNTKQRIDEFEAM

SMILES: OC(c1cc(C23CC4CC(CC(C4)C2)C3)nc2c(Cl)cc(Cl)cc12)C1CCCCN1 (centres unmarked) [NSC305787]
- binding kinetics on ezrin ([1]; comparison of the two compounds): bound to and dissociated faster from ezrin than NSC668394
- Kd ([1]; read-out: KD for binding to ezrin, average of five independent experiments): 5.85 µM and ~10 µM
- Kd [2]: 91.4 µM
- Kd [3]: 172 µM
- IC50 [4]: 9.4 µM
- IC50 [5]: 55 µM
- inhibition of PKC activity (PKCΙ, α and γ) [6]: required higher concentration than that required to inhibit ezrin phosphorylation
- T567 phosphorylation of endogenous ezrin [7]: inhibited
- actin binding of endogenous ezrin [7]: inhibited
- cellular ezrin levels [7]: without altering cellular ezrin levels
- invasion by K7M2 cells on HUVEC monolayer [8]: inhibited invasion
- invasion by K12 cells on HUVEC monolayer [9]: no effect on invasion
- cytotoxicity [10]: Neither compound was cytotoxic
- synergy between both compounds in cellular migration [11]: do not show any synergy
- Xenopus embryo phenotype at stage 12.5 ([12]; 10 μM): gastrulation defects
- Xenopus embryo phenotype by stage 37 ([12]; 10 μM): delays in development and ventral defects
- Xenopus embryo phenotype by stage 50 ([12]; 10 μM): short and bent tails and reduced eyes
- Xenopus embryo phenotype at high concentration ([12]; 40 μM): severe gastrulation defects and embryonic death
- lung metastases growth of K7M2 cells in organ culture (GFP fluorescence) [13]: significantly inhibited
- number of GFP-expressing metastatic foci in lung tissues ([14]; K7M2-injected mice): significant decrease
- overall survival vs vehicle group ([14]; K7M2, log-rank, P = 0.0337 (NSC305787), P = 0.0524 (NSC668394)): significantly different from that of the vehicle-treated group
- phospho-ezrin levels in lung–liver–kidney–spleen–skin samples ([14]; treated vs control (DMSO) animals): did not observe any meaningful differences
- median survival ([15]; MNNG-HOS tail vein, vehicle 50.5 days): 49 days
- number of GFP-expressing metastatic foci in lung tissues ([15]; MNNG-HOS-injected mice): no differences
- survival, control vs treatment groups ([15]; MNNG-HOS-injected mice): no difference in survival
- in vivo tolerability [16]: very well tolerated in vivo without any obvious acute toxicity
- zebrafish embryo phenotype ([17]; 10 μM): mimicked the ezrin MO phenotype
- embryos with epiboly defects ([17]; 10 μM, 12 of 81 embryos): 15%
- embryos with epiboly defects ([17]; 20 μM, 71 of 71 embryos): 100%
